# Source: patent publication US20230000808A1, “COMPOSITIONS AND METHODS EXCLUDING OR WITH REDUCED GLUTAMINE FOR THE TREATMENT OF HEMOGLOBINOPATHIES AND THALASSEMIAS” (AXCELLA HEALTH INC., priority 2019, published 2023)
# Experiments:
# [1] = system: VCAM-1; assay: VCAM-1 cell integrated intensity in HLMVEC treated with TNF-α (immunofluorescence); assay type: cell-based, human; conditions: HLMVEC + 0.5 ng/mL TNF-α, 24 h; amino acids 20x HMDB, Nac/Cit/Car 5 mM as bracketed
# Experimental: (§1) Primary Human Lung Microvascular Endothelial Cells (HLMVEC; Lonza) were seeded at 6,000 cells per well in Endothelial Cell Growth Basal Medium-2 (Lonza) supplemented with Fetal Bovine Serum (FBS; Lonza), human EGF (Lonza), human VEGF (Lonza), R3-Insulin-like Growth Factor-1 (Lonza), ascorbic acid (Lonza), hydrocortisone (Lonza), human FGF-beta (Lonza), and gentamicin/amphotericin-b (Lonza) in a 96-well plate (Thermo Fisher). The cells were incubated for 45 minutes at room temperature, then incubated overnight at 37° C./5% CO2.
# (§2) Following overnight incubation, cell were washed once with 150 μL of Dulbecco's phosphate buffered saline (DPBS; Gibco), and then treated with Endothelial Basal Medium MCB-131 (amino acid, glucose, sodium pyruvate, and phenol red free; US Biologicals) containing a defined custom amino acid concentration based on physiological concentrations in blood of patients with SCD (thus recapitulating observed metabolic imbalances such as the depletion of certain essential amino acids including arginine and aspartate and enrichment of certain non-essential amino acids including glutamate and asparagine), dialyzed FBS (Hyclone), human EGF (Lonza), human VEGF (Lonza), R3-Insulin-like Growth Factor-1 (Lonza), ascorbic acid (Lonza), hydrocortisone (Lonza), human FGF-beta (Lonza), and gentamicin/amphotericin-b (Lonza), glucose, 10 mM HEPES, sodium pyruvate, and sodium bicarbonate supplemented with one of the following: • a. PBS (vehicle control), • b. 0.5 ng/mL Tumor Necrosis Factor alpha (TNFα) and PBS, or; • c. 0.5 ng/mL TNF-α and amino acid treatments at 20× mean physiological concentrations in plasma based on values published in the Human Metabolome Database (HMDB) in PBS.
# (§3) After 24 hours of treatment, cells were washed once with 150 μL of DPBS (Gibco), then fixed with 4% paraformaldehyde. Following fixation, cells were stained with anti-ICAM-1 [MEM-111] (mouse IgG2a anti-human; abcam) and anti-VCAM1 [1.4C3] (mouse IgG1, K anti-human; abcam) primary antibodies at 1000×, and 100× dilutions respectively. Cells were then stained with Goat anti-Mouse IgG2a Cross-Adsorbed Secondary Antibody, Alexa Fluor 594 (Invitrogen) and Goat anti-Mouse IgG1 Cross-Adsorbed Secondary Antibody, Alexa Fluor 647 (Invitrogen) secondary antibodies. Nuclei were stained with Hoechst 3342 (Life Technologies).
# (§4) Antibody binding was detected by fluorescence microscopy using a high content imager (Molecular Devices). Images were analyzed using MetaXpress 6 software to determine the integrated intensity per cell for each wavelength corresponding to ICAM-1 or VCAM-1.
# [2] = system: ICAM-1; assay: ICAM-1 cell integrated intensity in HLMVEC treated with TNF-α (immunofluorescence); assay type: cell-based, human; conditions: HLMVEC + 0.5 ng/mL TNF-α, 24 h; amino acids 20x HMDB, Nac/Cit/Car 5 mM as bracketed
# Experimental: as §1, §2, §3, §4
# [3] = system: IL-6; assay: Secreted IL-6 in HLMVEC treated with TNF-α (FirePlex); assay type: cell-based, human; conditions: HLMVEC + 0.5 ng/mL TNF-α, 24 h; amino acids 20x HMDB, Nac/Cit/Car 5 mM as bracketed
# Experimental: as §1, §2
# Supernatants were analyzed for IL-6 concentrations using a Human Cytokines FirePlex-HT Panel 1 kit (abcam) according to the manufacturer-supplied instructions. Particles were imaged on a high content imager (Molecular Devices), and results were interpolated from a standard curve with FirePlex Analysis Workbench Software (abcam) according manufacturer's recommendations.
# [4] = system: HLMVEC; assay: META-rank score, composite of VCAM1, ICAM1 and IL6 in the HLMVEC model; assay type: cell-based, human; conditions: HLMVEC + TNF-α; lower score = more optimal; 20x HMDB / 5 mM
# Experimental: The ability of single amino acids and combinations to simultaneously impact these phenotypes was measured by a META-rank score (Tables 17 and 18). META-rank score is a composite measure that considers the optimal impact on all 3 phenotypes (e.g. decrease VCAM1, ICAM1, and IL6) in the HLMVEC model.
# [5] = system: IL-6; assay: LPS-induced IL-6 secretion in primary human monocyte-derived macrophages (ELISA); assay type: cell-based; parameters: Donor 1 IL-6 Measurements Mean: unit not given here; conditions: for Donor 1 IL-6 Measurements Mean / Donor 2 IL-6 Measurements Mean / Donor 3 IL-6 Measurements Mean: LPS, baseline subtracted
# Experimental: (§5) Primary human PMBC derived macrophages were seeded on day 0 at 3.0×10^4 cells per well in 96-well microplates (ThermoFisher) in Dulbecco's Modified Eagle Medium (DMEM) (Gibco) supplemented with penicillin-streptomycin (Hyclone) and 10% heat inactivated fetal bovine serum (HI-FBS) (Atlanta Bio) and incubated overnight at 37° C., 5% CO2. On day 1, cells were washed once with 150 μl per well DPBS (Gibco) and treated with 75 μl of: • a. […] The same medium described above with one amino acid at various concentrations including complete dropout. […] On day 3, the supernatant was collected and immediately frozen in −80° C. freezer. Cells were washed once with 150 μl DPBS and viability was assessed using the WST-8 Cell Proliferation Cytotoxicity Assay (Dojindo). […] Protein levels in supernatant samples were analyzed by ELISA for IL-6 and TNFα using commercially available kits (R&D Systems) according to manufacturer-supplied protocols.
# [6] = system: TNFα; assay: LPS-induced TNF-α secretion in primary human monocyte-derived macrophages (ELISA); assay type: cell-based; conditions: for TNF-α Measurements Mean: LPS, baseline subtracted; for effect on LPS-induced TNF-α secretion: Two Way ANOVA Dunnett
# Experimental: as §5
# [7] = Donor 2, Conc. 234 μM (baseline)
# [8] = Donor 2, Conc. 153 μM (baseline)
# [9] = Donor 2, Conc. 66 μM (baseline)
structure (smiles),measurement,setting,value
NCCCC[C@H](N)C(=O)O [Lys],VCAM-1 Cell Integrated Intensity Median,[1],0.025
same,ICAM-1 Cell Integrated Intensity Median,[2],0.064
same,Secreted IL6 Median,[3],0.132
same,Meta-Rank (Table 18),[4],15.5
same,Metarank (Table 17),[4],29
N[C@@H](Cc1c[nH]c2ccccc12)C(=O)O [Trp],VCAM-1 Cell Integrated Intensity Median,[1],0.162
same,ICAM-1 Cell Integrated Intensity Median,[2],0.171
same,Secreted IL6 Median,[3],−0.357
same,Meta-Rank (Table 18),[4],24
same,Metarank (Table 17),[4],12
CC(C)[C@H](N)C(=O)O [Valine],Donor 1 IL-6 Measurements Mean,[5]; Conc. 234 μM (baseline),0
same,Donor 1 IL-6 Measurements Mean,[5]; Conc. 4684 μM,−85.9843
same,Donor 1 IL-6 Measurements Mean,[5]; Conc. 11710 μM,−97.25
same,Donor 1 IL-6 Measurements Mean,[5]; Conc. 23420 μM,−106.268
same,Donor 2 IL-6 Measurements Mean,[5]; [7],−4.7E−15
same,Donor 2 IL-6 Measurements Mean,"[5]; Donor 2, Conc. 4684 μM",−4.528
same,Donor 2 IL-6 Measurements Mean,"[5]; Donor 2, Conc. 11710 μM",−1.196
same,Donor 2 IL-6 Measurements Mean,"[5]; Donor 2, Conc. 23420 μM",4.396
same,Donor 3 IL-6 Measurements Mean,[5]; Conc. 234 μM (baseline),4.26E−14
same,Donor 3 IL-6 Measurements Mean,[5]; Conc. 4684 μM,−30.0609
same,Donor 3 IL-6 Measurements Mean,[5]; Conc. 11710 μM,−43.8022
same,Donor 3 IL-6 Measurements Mean,[5]; Conc. 23420 μM,−29.2004
same,TNF-α Measurements Mean,"[6]; Donor 1, Conc. 234 μM (baseline)",0
same,TNF-α Measurements Mean,"[6]; Donor 1, Conc. 4684 μM",−40.37
same,TNF-α Measurements Mean,"[6]; Donor 1, Conc. 11710 μM",−41.77
same,TNF-α Measurements Mean,"[6]; Donor 1, Conc. 23420 μM",−14.98
same,TNF-α Measurements Mean,[6]; [7],−4.7E−15
same,TNF-α Measurements Mean,"[6]; Donor 2, Conc. 4684 μM",−0.00221
same,TNF-α Measurements Mean,"[6]; Donor 2, Conc. 11710 μM",−0.835
same,TNF-α Measurements Mean,"[6]; Donor 2, Conc. 23420 μM",−1.251
same,TNF-α Measurements Mean,"[6]; Donor 3, Conc. 234 μM (baseline)",−2.4E−15
same,TNF-α Measurements Mean,"[6]; Donor 3, Conc. 4684 μM",0.126
same,TNF-α Measurements Mean,"[6]; Donor 3, Conc. 11710 μM",−2.599
same,TNF-α Measurements Mean,"[6]; Donor 3, Conc. 23420 μM",3.688
N[C@@H](CO)C(=O)O [Ser],VCAM-1 Cell Integrated Intensity Median,[1],0.139
same,ICAM-1 Cell Integrated Intensity Median,[2],0.076
same,Secreted IL6 Median,[3],−0.153
same,Meta-Rank (Table 18),[4],19
same,Metarank (Table 17),[4],23
CC(C)C[C@H](N)C(=O)O [Leucine],Donor 1 IL-6 Measurements Mean,[5]; Conc. 153 μM (baseline),0
same,Donor 1 IL-6 Measurements Mean,[5]; Conc. 3054 μM,244.9743
same,Donor 1 IL-6 Measurements Mean,[5]; Conc. 7635 μM,−69.9873
same,Donor 1 IL-6 Measurements Mean,[5]; Conc. 15270 μM,84.46
same,Donor 2 IL-6 Measurements Mean,[5]; [8],7.11E−15
same,Donor 2 IL-6 Measurements Mean,"[5]; Donor 2, Conc. 3054 μM",29.61
same,Donor 2 IL-6 Measurements Mean,"[5]; Donor 2, Conc. 7635 μM",30.46
same,Donor 2 IL-6 Measurements Mean,"[5]; Donor 2, Conc. 15270 μM",47.6
same,effect on LPS-induced IL-6 secretion,"[5]; Donor 2, Two Way ANOVA Dunnett",increased
same,TNF-α Measurements Mean,"[6]; Donor 1, Conc. 153 μM (baseline)",0
same,TNF-α Measurements Mean,"[6]; Donor 1, Conc. 3054 μM",42.04
same,TNF-α Measurements Mean,"[6]; Donor 1, Conc. 7635 μM",−23.04
same,TNF-α Measurements Mean,"[6]; Donor 1, Conc. 15270 μM",−46.21
same,TNF-α Measurements Mean,[6]; [8],0
same,TNF-α Measurements Mean,"[6]; Donor 2, Conc. 3054 μM",31.74
same,TNF-α Measurements Mean,"[6]; Donor 2, Conc. 7635 μM",41.98
same,TNF-α Measurements Mean,"[6]; Donor 2, Conc. 15270 μM",46.69
same,effect on LPS-induced TNF-α secretion,[6]; Donor 2,increased
NC(=O)CC[C@H](N)C(=O)O [Gln],VCAM-1 Cell Integrated Intensity Median,[1],0.372
same,ICAM-1 Cell Integrated Intensity Median,[2],0.237
same,Secreted IL6 Median,[3],0.043
same,Meta-Rank (Table 18),[4],29
same,Metarank (Table 17),[4],28
CC[C@H](C)[C@H](N)C(=O)O [Isoleucine],Donor 1 IL-6 Measurements Mean,[5]; Conc. 66 μM (baseline),0
same,Donor 1 IL-6 Measurements Mean,[5]; Conc. 1328 μM,25.98
same,Donor 1 IL-6 Measurements Mean,[5]; Conc. 3320 μM,−15.8843
same,Donor 1 IL-6 Measurements Mean,[5]; Conc. 6639 μM,−218.332
same,Donor 2 IL-6 Measurements Mean,[5]; [9],0
same,Donor 2 IL-6 Measurements Mean,"[5]; Donor 2, Conc. 1328 μM",−2.318
same,Donor 2 IL-6 Measurements Mean,"[5]; Donor 2, Conc. 3320 μM",2.305
same,Donor 2 IL-6 Measurements Mean,"[5]; Donor 2, Conc. 6639 μM",−1.774
same,Donor 3 IL-6 Measurements Mean,[5]; Conc. 66 μM,−6.69
same,Donor 3 IL-6 Measurements Mean,[5]; Conc. 1328 μM,−28.9897
same,Donor 3 IL-6 Measurements Mean,[5]; Conc. 3320 μM,0
same,Donor 3 IL-6 Measurements Mean,[5]; Conc. 6639 μM,−16.3663
same,TNF-α Measurements Mean,"[6]; Donor 1, Conc. 66 μM (baseline)",0
same,TNF-α Measurements Mean,"[6]; Donor 1, Conc. 1328 μM",−42.68
same,TNF-α Measurements Mean,"[6]; Donor 1, Conc. 3320 μM",−96.3
same,TNF-α Measurements Mean,"[6]; Donor 1, Conc. 6639 μM",−40.95
same,TNF-α Measurements Mean,[6]; [9],4.74E−15
same,TNF-α Measurements Mean,"[6]; Donor 2, Conc. 1328 μM",2.919
same,TNF-α Measurements Mean,"[6]; Donor 2, Conc. 3320 μM",10.26
same,TNF-α Measurements Mean,"[6]; Donor 2, Conc. 6639 μM",19.26
same,effect on LPS-induced TNF-α secretion,[6]; Donor 2,increased
same,TNF-α Measurements Mean,"[6]; Donor 3, Conc. 66 μM (baseline)",−2.4E−15
same,TNF-α Measurements Mean,"[6]; Donor 3, Conc. 1328 μM",−6.23
same,TNF-α Measurements Mean,"[6]; Donor 3, Conc. 3320 μM",3.309
same,TNF-α Measurements Mean,"[6]; Donor 3, Conc. 6639 μM",−1.66
NCCC[C@H](N)C(=O)O [Orn],VCAM-1 Cell Integrated Intensity Median,[1],−0.196
same,ICAM-1 Cell Integrated Intensity Median,[2],−0.197
same,Secreted IL6 Median,[3],−0.378
same,Meta-Rank (Table 18),[4],6.5
same,Metarank (Table 17),[4],11
CC(C)[C@H](N)C(=O)O [Val],VCAM-1 Cell Integrated Intensity Median,[1],0.315
same,ICAM-1 Cell Integrated Intensity Median,[2],0.167
same,Secreted IL6 Median,[3],−0.224
same,Meta-Rank (Table 18),[4],25.5
same,Metarank (Table 17),[4],18
N=C(N)NCCC[C@H](N)C(=O)O [Arg],VCAM-1 Cell Integrated Intensity Median,[1],−0.001
same,ICAM-1 Cell Integrated Intensity Median,[2],−0.046
same,Secreted IL6 Median,[3],−0.224
same,Metarank (Table 17),[4],19
